Laboratory results published in ChEMBL document CHEMBL5523684, “Development of a tetrahydroindazolone-based HDAC6 inhibitor with in-vivo anti-arthritic activity” (Bioorg Med Chem, 2024).
The source made the active and inactive calls. No cut-off for these calls is given here.

Assays:
[1] = Cmax in monkey at 10 mg/kg, po; assay type: ADME, organism-based, Macaca mulatta; settings: rhesus monkey, in vivo
[2] = AUClast in mouse at 10 mg/kg, iv; assay type: ADME, organism-based; settings: in vivo
[3] = Bioavailability in monkey at 0.5 mg/kg, iv; assay type: ADME, organism-based, Macaca mulatta; settings: rhesus monkey, in vivo
[4] = Bioavailability in dog at 0.5 mg/kg, iv; assay type: ADME, organism-based, Canis lupus familiaris; settings: in vivo
[5] = target: T1, Protein deacetylase HDAC6 (Homo sapiens) (UniProt Q9UBN7); assay: Inhibition of HDAC6 in human HH cells assessed as induction of acetylated tubulin accumulation at 0.3 uM by Western blot analysis; assay type: cell-based
T1 sequence (whole entry): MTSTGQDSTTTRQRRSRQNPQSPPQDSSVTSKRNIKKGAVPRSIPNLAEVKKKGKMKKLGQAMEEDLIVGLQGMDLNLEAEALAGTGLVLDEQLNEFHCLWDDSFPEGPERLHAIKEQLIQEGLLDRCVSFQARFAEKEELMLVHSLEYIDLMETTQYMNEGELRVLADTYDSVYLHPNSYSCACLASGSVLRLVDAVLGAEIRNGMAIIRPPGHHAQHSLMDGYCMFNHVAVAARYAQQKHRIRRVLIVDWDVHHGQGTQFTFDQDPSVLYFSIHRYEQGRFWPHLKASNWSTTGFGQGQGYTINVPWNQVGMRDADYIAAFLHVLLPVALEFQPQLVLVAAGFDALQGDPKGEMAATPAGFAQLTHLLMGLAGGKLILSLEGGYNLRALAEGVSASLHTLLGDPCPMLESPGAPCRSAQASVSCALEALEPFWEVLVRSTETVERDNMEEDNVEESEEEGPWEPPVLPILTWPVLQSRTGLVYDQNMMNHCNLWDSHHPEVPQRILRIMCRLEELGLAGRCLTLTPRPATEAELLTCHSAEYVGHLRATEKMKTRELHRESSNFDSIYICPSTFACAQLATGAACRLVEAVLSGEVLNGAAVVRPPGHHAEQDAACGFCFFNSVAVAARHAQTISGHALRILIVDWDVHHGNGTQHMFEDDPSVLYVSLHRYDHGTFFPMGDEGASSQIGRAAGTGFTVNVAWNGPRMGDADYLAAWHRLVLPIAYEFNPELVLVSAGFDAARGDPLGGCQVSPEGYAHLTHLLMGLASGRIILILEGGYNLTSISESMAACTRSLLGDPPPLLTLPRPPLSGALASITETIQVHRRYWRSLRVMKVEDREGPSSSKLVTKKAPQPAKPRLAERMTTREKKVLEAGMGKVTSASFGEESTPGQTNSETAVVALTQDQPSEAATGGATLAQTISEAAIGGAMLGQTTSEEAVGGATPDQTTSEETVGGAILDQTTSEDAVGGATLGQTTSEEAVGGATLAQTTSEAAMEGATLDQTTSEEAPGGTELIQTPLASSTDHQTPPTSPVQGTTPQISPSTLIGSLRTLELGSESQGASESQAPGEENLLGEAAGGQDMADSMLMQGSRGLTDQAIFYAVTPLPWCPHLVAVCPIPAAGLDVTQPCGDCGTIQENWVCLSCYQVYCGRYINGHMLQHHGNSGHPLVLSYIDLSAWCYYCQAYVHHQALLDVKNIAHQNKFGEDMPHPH

[6] = AUClast in mouse at 50 mg/kg, po; assay type: ADME, organism-based; settings: in vivo
[7] = target: T1, Protein deacetylase HDAC6 (Homo sapiens); assay: Inhibition of HDAC6 in human HH cells assessed as induction of acetylated H4 accumulation upto 10 uM by Western blot analysis; assay type: cell-based
[8] = AUC (0 to infinity) in dog at 5 mg/kg, po; assay type: ADME, organism-based, Canis lupus familiaris; settings: in vivo
Mus musculus [9] = assay: Antiarthritic activity against collagen-induced arthritis DBA1J mouse model assessed as improvement in arthritis symptoms at 30 mg/kg, sc measured after 21 days; assay type: functional; settings: time 21 day
[10] = AUC (0 to infinity) in monkey at 0.5 mg/kg, iv; assay type: ADME, organism-based, Macaca mulatta; settings: rhesus monkey, in vivo
[11] = Bioavailability in mouse at 10 mg/kg, iv; assay type: ADME, organism-based; settings: in vivo
[12] = Cmax in mouse at 50 mg/kg, po; assay type: ADME, organism-based; settings: in vivo
Rattus norvegicus = assay: Antiarthritic activity against adjuvant-induced arthritis Lewis rat model assessed as improvement in arthritis symptoms at 50 mg/kg, po measured after 8 days in presence of methotrexate; assay type: functional; settings: time 8 day
[13] = Tmax in mouse at 50 mg/kg, po; assay type: ADME, organism-based; settings: in vivo
Mus musculus [14] = assay: Antiarthritic activity against collagen-induced arthritis DBA1J mouse model assessed as improvement in arthritis symptoms at 15 mg/kg, sc measured after 21 days; assay type: functional; settings: time 21 day
[15] = Clearance in dog at 0.5 mg/kg, iv; assay type: ADME, organism-based, Canis lupus familiaris; settings: in vivo
THP-1 = assay: Inhibition of TNF-alpha secretion in LPS-stimulated human THP-1 cells pretreated with compound for 24 hrs followed by LPS-induction and measured after 4 hrs by ELISA analysis; assay type: functional, cell-based; settings: dose 0.3-10 µM
[16] = Tmax in dog at 5 mg/kg, po; assay type: ADME, organism-based, Canis lupus familiaris; settings: in vivo
[17] = Clearance in monkey at 0.5 mg/kg, iv; assay type: ADME, organism-based, Macaca mulatta; settings: rhesus monkey, in vivo
[18] = Half life in mouse at 50 mg/kg, po; assay type: ADME, organism-based; settings: in vivo
[19] = Half life in mouse at 10 mg/kg, iv; assay type: ADME, organism-based; settings: in vivo
[20] = AUC (0 to infinity) in monkey at 10 mg/kg, po; assay type: ADME, organism-based, Macaca mulatta; settings: rhesus monkey, in vivo
Mus musculus [21] = assay: Antiarthritic activity against collagen-induced arthritis DBA1J mouse model at 15 to 30 mg/kg, sc measured after 21 days; assay type: functional, organism-based; settings: dose lower […], dose upper 30.0 mg/kg, time 21.0 day
[22] = C0 in monkey at 0.5 mg/kg, iv; assay type: ADME, organism-based, Macaca mulatta; settings: rhesus monkey, in vivo
[23] = target: T1, Protein deacetylase HDAC6 (Homo sapiens); assay: Inhibition of HDAC6 in human HH cells assessed as induction of acetylated H3 accumulation upto 10 uM by Western blot analysis; assay type: cell-based
[24] = AUClast in dog at 5 mg/kg, po; assay type: ADME, organism-based, Canis lupus familiaris; settings: in vivo
[25] = AUClast in monkey at 0.5 mg/kg, iv; assay type: ADME, organism-based, Macaca mulatta; settings: rhesus monkey, in vivo
[26] = AUC (0 to infinity) in mouse at 10 mg/kg, iv; assay type: ADME, organism-based; settings: in vivo
[27] = Half life in monkey at 0.5 mg/kg, iv; assay type: ADME, organism-based, Macaca mulatta; settings: rhesus monkey, in vivo
[28] = C0 in dog at 0.5 mg/kg, iv; assay type: ADME, organism-based, Canis lupus familiaris; settings: in vivo
[29] = target: T2, Protein deacetylase HDAC6 (Homo sapiens, UniProt Q9UBN7); assay: Inhibition of N-terminal GST-tagged human recombinant HDAC6 expressed in Spodoptera frugiperda incubated for 60 mins by fluorescence based analysis
T2 sequence (Q9UBN7 whole entry): T1 sequence (whole entry)

Histone deacetylase 4 = Histone deacetylase 4 (Homo sapiens, UniProt P56524); assay: Inhibition of human recombinant HDAC4 using Boc-Lys(tri-fluoroacetyl)-AMC as substrate by fluorescence based analysis
[30] = target: T2, Protein deacetylase HDAC6; assay: Inhibition of human recombinant HDAC6 using fluorescent peptide p53 (379 to 382 residues) RHKK(Ac) as substrate by fluorescence based analysis
Histone deacetylase 9 = Histone deacetylase 9 (Homo sapiens, UniProt Q9UKV0); assay: Inhibition of human recombinant HDAC9 using Boc-Lys(tri-fluoroacetyl)-AMC as substrate by fluorescence based analysis
Histone deacetylase 5 = Histone deacetylase 5 (Homo sapiens, UniProt Q9UQL6); assay: Inhibition of human recombinant HDAC5 using Boc-Lys(tri-fluoroacetyl)-AMC as substrate by fluorescence based analysis
Sequence of Histone deacetylase 5 (Q9UQL6 whole entry): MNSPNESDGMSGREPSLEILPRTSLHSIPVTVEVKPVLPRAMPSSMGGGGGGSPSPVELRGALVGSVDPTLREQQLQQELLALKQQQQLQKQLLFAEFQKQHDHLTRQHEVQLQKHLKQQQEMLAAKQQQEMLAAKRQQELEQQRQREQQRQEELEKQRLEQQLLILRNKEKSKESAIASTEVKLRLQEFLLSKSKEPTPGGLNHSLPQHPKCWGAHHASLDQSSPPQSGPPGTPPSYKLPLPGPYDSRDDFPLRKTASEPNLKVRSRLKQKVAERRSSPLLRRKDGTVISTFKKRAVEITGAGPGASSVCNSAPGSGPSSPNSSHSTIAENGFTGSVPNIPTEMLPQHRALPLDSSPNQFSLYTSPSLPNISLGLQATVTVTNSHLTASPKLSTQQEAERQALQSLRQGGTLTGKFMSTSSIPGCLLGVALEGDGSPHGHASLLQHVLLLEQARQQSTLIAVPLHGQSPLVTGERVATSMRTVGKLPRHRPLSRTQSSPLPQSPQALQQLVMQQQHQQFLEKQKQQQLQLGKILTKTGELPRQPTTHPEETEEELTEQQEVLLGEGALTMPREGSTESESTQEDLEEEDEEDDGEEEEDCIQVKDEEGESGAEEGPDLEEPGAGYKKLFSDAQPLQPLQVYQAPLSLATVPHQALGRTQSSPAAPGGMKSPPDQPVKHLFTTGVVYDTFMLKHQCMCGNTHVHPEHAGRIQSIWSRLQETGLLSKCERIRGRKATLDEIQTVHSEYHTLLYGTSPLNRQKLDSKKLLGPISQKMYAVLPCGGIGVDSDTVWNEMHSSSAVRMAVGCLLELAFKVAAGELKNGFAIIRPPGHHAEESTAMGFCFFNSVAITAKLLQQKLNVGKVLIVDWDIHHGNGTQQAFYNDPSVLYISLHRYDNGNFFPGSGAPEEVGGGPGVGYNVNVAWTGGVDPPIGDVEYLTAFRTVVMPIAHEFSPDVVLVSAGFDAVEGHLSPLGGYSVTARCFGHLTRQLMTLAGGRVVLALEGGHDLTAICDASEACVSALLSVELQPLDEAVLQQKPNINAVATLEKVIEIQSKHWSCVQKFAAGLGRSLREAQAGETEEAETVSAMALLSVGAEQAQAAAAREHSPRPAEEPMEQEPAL

Sequence of Histone deacetylase 4 (P56524 whole entry, the tested form may be a part): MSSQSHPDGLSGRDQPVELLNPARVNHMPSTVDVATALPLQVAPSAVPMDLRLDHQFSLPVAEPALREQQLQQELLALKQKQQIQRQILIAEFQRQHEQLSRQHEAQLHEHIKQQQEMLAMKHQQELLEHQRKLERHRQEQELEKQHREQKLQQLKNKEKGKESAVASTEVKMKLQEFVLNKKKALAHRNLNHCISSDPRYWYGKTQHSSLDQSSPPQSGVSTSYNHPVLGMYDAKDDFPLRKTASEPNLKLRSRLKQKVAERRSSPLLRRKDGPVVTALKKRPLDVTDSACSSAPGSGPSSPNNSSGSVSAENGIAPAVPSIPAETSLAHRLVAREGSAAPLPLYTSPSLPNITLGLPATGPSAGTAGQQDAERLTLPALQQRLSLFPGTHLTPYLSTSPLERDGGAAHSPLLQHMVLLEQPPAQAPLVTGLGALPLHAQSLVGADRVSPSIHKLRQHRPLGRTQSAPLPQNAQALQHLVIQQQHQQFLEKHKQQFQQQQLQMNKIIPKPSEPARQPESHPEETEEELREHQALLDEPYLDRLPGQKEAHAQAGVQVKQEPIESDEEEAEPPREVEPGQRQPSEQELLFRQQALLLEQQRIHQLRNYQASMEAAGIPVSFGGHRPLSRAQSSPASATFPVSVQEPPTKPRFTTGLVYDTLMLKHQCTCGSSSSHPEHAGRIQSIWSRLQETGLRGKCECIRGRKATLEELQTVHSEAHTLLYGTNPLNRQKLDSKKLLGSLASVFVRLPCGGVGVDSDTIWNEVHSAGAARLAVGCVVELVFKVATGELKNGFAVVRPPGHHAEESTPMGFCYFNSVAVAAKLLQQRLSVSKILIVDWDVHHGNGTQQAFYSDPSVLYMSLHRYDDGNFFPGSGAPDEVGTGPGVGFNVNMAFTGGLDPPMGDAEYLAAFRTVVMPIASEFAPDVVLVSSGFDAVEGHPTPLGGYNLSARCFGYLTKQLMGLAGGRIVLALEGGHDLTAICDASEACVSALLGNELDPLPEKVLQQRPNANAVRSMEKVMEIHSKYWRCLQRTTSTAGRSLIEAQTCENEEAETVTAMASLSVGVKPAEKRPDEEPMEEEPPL
Sequence of Histone deacetylase 9 (Q9UKV0 whole entry): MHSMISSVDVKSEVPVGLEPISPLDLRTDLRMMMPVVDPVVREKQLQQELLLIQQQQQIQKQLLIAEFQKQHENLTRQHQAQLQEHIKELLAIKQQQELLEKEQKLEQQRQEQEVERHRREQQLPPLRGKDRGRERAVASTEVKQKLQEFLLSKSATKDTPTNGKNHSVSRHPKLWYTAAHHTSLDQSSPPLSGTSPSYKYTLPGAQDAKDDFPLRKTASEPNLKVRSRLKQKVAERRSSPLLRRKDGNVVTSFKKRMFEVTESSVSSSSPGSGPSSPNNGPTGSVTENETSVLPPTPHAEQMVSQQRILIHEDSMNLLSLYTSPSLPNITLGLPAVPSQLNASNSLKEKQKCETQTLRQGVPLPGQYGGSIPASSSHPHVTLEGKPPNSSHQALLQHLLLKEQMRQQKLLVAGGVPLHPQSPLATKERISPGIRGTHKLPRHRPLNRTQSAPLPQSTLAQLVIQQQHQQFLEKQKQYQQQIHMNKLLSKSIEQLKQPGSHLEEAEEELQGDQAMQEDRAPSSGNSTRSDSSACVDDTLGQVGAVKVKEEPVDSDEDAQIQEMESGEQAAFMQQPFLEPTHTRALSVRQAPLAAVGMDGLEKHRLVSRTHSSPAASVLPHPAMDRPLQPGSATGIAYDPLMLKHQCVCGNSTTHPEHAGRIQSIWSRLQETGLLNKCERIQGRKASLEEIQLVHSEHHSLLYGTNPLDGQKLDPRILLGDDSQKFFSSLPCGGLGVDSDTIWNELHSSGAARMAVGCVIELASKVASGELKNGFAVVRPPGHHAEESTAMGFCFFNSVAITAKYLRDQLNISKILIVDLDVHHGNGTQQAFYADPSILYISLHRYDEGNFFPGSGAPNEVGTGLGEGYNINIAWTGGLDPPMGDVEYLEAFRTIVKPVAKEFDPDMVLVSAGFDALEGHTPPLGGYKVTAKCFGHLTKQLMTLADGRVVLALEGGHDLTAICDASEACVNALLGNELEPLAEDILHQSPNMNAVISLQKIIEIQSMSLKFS

CC1(C)CC(=O)c2c(C(F)(F)F)nn(Cc3ccc(C(=O)NO)cc3)c2C1
Cmax [1]: 137 ng/mL | AUC(0-t) [2]: 1200 ng·h/mL | bioavailability [3]: 11.2% | bioavailability [4]: 25.1% | inhibition [5]: Active | AUC(0-t) [6]: 1140 ng·h/mL | inhibition [7]: inactive | AUC(0-inf) [8]: 1150 ng·h/mL | Activity (Mus musculus [9]): 65% | AUC [10]: 302 ng·h/mL | bioavailability [11]: 19% | Cmax [12]: 2080 ng/mL | Activity (Rattus norvegicus): 97.9% | Tmax [13]: 4.98 min | Activity (Mus musculus [14]): 53% | clearance [15]: 18.8 mL/min/kg | inhibition (THP-1): Dose-Dependent Effect | Tmax [16]: 24 min | CL [17]: 55.7 mL/min/kg | half-life [18]: 83.4 min | half-life [19]: 17.4 min | AUC(0-inf) [20]: 339 ng·h/mL | Activity (Mus musculus [21]): Active | C0 [22]: 1040 ng/mL | inhibition [23]: inactive | AUC(0-t) [24]: 1090 ng·h/mL | AUC(0-t) [25]: 299 ng·h/mL | AUC(0-inf) [26]: 1210 ng·h/mL | half-life [27]: 18.6 min | C0 [28]: 2080 ng/mL

O=C(NO)c1ccc(Cn2c3c(c4ccccc42)C(=O)CCC3)cc1
IC50 [29]: 16 nM | IC50 (Histone deacetylase 4): > 20000 nM | IC50 [30]: 35 nM | IC50 (Histone deacetylase 9): > 20000 nM | IC50 (Histone deacetylase 5): > 20000 nM
